Patent US4695577A, “Anti-hypertensive agents” (University of Miami, priority 1979, dated 1987)

Legend:
human urinary ACE = target: T1, human urinary ACE (Homo sapiens, UniProt P12821); test: ACE Activity Assay (hydrolysis of Benzoyl-GlyHisLeu); assay type: biochemical; conditions: purified human urinary ACE, in vitro, pH 8.0, 37° C; read-out: I50
T1 construct: The enzyme preparation was ACE purified from human urine; from tissue; host or cells: human urine
Description: These factors include the source of enzyme, its purity, the substrate used and its concentration, and the composition of the assay buffer. All I50 data reported herein have been performed with the same assay system and same enzyme (human urinary ACE) and with an approximately 1/2Km level of substrate and are therefore internally consistent.
To initiate the assay, 40 μl of enzyme and 10 μl of water or inhibitor dissolved in water were preincubated for five minutes at 37° C. […] To terminate the reaction, 1 ml of 0.1 M HCl was added, following which 1 ml of ethyl acetate was added. The mixture was agitated on a rotary mixer and centrifuged briefly to separate the phases.
An aliquot, 500 μl, of the ethyl acetate layer was transferred to a liquid scintillation vial containing 10 ml of Riafluor, trademark New England Nuclear Corporation, Boston, Mass. For determination of I50 values, enzyme activity in the presence of inhibitor at a series of different concentrations was compared to activity in the absence of inhibitor.

[1] = system: Blood pressure response to angiotensin I; test: Intravenous effectiveness: blood pressure response to angiotensin I in anesthetized rats; assay type: in vivo, rat; conditions: intravenous 2 μmol/kg
Description: Rats (190-290 g body weight) were fasted overnight and then anesthetized with intraperitoneal pentobarbital, 50-60 mg/kg. Tracheostomy was performed and the animals were ventilated mechanically. A cannula was inserted into a femoral vein for injection of angiotensin I, and a second cannula was inserted into a common carotid artery for direct measurement of arterial blood pressure. Heparin, 1,000 units, was injected via the femoral vein to prevent coagulation. Blood pressure was measured with a pressure transducer connected to a polygraph. The rats were injected with 400 ng/kg of angiotensin I in 20 μl of 0.9 g % NaCl; an amount of angiotensin I sufficient to raise mean arterial blood pressure by 35 mm Hg. After the responsiveness of a given rat to angiotensin I was established, the named compound at 23 μmole/kg (drug dissolved in 0.15 ml of H2 O plus 10 μl of 1 N NaHCO3 ), was given via a stomach tube. At timed intervals, the effects of 400 ng/kg of angiotensin I on mean arterial blood pressure were tested. Results are shown below:
Anesthetized rats were prepared as described in Example 35. After the responsiveness of a given rat to angiotensin I was established, the named compound, at 2 μmol/kg, in a volume of 15 μl of 0.01 N sodium bicarbonate, was injected via a femoral vein. At timed intervals, the effects of angiotensin I, 400 ng/kg, on mean arterial blood pressure were tested.

T1 sequence (P12821 30-1232 limits assumed): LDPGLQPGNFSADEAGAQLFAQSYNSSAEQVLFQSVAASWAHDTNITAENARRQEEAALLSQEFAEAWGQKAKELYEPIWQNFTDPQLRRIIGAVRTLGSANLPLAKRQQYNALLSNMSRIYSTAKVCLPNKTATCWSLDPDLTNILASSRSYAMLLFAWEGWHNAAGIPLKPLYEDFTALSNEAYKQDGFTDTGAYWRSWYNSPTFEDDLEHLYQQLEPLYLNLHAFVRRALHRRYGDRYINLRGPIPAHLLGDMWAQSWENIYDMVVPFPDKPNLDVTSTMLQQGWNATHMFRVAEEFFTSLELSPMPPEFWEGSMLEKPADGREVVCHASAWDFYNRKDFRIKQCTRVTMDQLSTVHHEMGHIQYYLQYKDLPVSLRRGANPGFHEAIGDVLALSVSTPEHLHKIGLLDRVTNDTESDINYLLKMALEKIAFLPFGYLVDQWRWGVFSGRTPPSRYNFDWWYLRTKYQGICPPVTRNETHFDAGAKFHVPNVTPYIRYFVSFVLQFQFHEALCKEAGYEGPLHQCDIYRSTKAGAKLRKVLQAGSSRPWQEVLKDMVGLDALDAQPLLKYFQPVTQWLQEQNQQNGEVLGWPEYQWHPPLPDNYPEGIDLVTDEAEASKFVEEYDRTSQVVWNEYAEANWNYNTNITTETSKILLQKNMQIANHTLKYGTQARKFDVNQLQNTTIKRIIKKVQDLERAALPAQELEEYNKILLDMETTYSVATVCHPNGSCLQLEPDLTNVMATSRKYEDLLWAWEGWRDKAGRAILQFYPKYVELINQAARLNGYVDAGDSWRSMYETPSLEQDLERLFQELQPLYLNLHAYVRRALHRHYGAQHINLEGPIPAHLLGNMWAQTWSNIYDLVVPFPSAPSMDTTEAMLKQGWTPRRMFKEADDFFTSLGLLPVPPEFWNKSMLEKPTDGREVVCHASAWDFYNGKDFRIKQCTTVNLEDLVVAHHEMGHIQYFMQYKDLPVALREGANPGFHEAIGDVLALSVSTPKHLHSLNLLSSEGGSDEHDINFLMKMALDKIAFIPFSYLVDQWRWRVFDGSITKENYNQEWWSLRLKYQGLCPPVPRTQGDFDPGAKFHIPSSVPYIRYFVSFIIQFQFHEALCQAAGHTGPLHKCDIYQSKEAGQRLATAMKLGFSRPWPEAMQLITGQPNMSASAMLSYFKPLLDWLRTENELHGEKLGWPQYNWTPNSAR

Row | IC50 (human urinary ACE) | Structure (SMILES) | Blood pressure response to 400 ng/kg angiotensin I ([1]; 3 min) | Blood pressure response to 400 ng/kg angiotensin I ([1]; 9 min) | Blood pressure response to 400 ng/kg angiotensin I ([1]; 13 min)
1 | 0.0075 µM | C[C@H](CSC(=O)[C@H](Cc1ccccc1)NC(=O)C1CCCC1)C(=O)N1CCC[C@H]1C(=O)O [Example 24, N^α -[3-(N^α -cyclopentylcarbonyl-L-phenylalanylthio)-2-D-methylpropanoyl]-L-proline] |  |  | 
2 | 0.034 µM | C[C@H](CSC(=O)[C@H](Cc1ccccc1)NC(=O)OC(C)(C)C)C(=O)N1CCC[C@H]1C(=O)O [Example 13, N^α -[3-(N^α -Tertiary-Butyloxycarbonyl-L-Phenylalanylthio)-2-D-Methylpropanoyl]-L-Proline] | 19 % of control | 19 % of control | 22 % of control
